The nature of the assay: Canine pyruvate study blood chemistry. It is filed as in vivo. As to conditions: dogs fed pyruvate compared to similar foods containing fish oil. The text has this: 40 dogs were fed a control food for 28 days prior to start of the study. At day 0, dogs were allotted to one of three experimental foods, control+fish oil, control+pyruvate, or control+fish oil and pyruvate. Dogs were fed the experimental foods for 45 days. [table]

Consider `CC(=O)C(=O)O` [pyruvate, calcium pyruvate], for which the blood urea nitrogen result is recorded as “reduced” and the creatinine result was “reduced”.

These data come from patent publication US9173422B2, “Compositions including pyruvate for companion animals and methods of use thereof” (Hill's Pet Nutrition, Inc., priority 2009, dated 2015).
